Measured values taken from publication PMC7581941, “Schedule-Dependent Synergy Between the Histone Deacetylase Inhibitor Belinostat and the Dihydrofolate Reductase Inhibitor Pralatrexate in T-and B-cell Lymphoma Cells in vitro” (Frontiers in Cell and Developmental Biology, 2020).
Read-outs that look alike come from different tables or passages of the source.

Key:
CCRF-CEM = assay: Cell growth inhibition (MTT), CCRF-CEM; assay type: cell-based, human; settings: Homo sapiens, read-out: IC50 (50% growth inhibition); CCRF-CEM, 72 h exposure
Procedure: (§1) Cells were treated immediately with a drug dilution series in cell culture medium (75 μL/well). After an incubation period of approximately 72 h, growth in the 96-wells plates was assessed by adding 15 μL MTT solution (stock solution 5 mg/ml in PBS, final concentration 0.5 mg/ml in culture medium) to each well. After incubation for 3 h in the 5% CO2 incubator with 100% humidity at 37°C, 150 μL acidified 2-propanol was added to the plates to dissolve the formazan crystals. The yellow-colored MTT stock solution is taken up and reduced to a purple formazan in living cells, which directly correlates to the amount of viable cells. As final step, the plates were measured at 540 (or 492) nm by the SPECTRAfluor spectrophotometer.

HT cells [1] = assay: Cell growth inhibition (cell counting) and median-drug effect analysis, HT; assay type: cell-based; settings: for IC50: HT
SUDHL-4 cells [2] = assay: Cell growth inhibition (cell counting) and median-drug effect analysis, SUDHL-4; assay type: cell-based; settings: Homo sapiens, SU-DHL-4, read-out: IC50 (50% growth inhibition); SUDHL 4, 72 h exposure
SUDHL-5 cells = assay: Cell growth inhibition (MTT) and median-drug effect analysis, SUDHL-5; assay type: cell-based; settings: Homo sapiens, SU-DHL-5, read-out: IC50 (50% growth inhibition); SUDHL 5, 72 h exposure
Procedure: as §1
Drug interaction in combination experiments was evaluated using the median-drug effect analysis using CalcuSyn software ([Bijnsdorp et al., 2011]). In order to evaluate combination indexes [CI] from different experiments, the CI values at Fraction Affected (FA) values >0.5 (preferably around 0.5, 0.75, and 0.9) were averaged for each specific experiment. The means of the separate experiments were subsequently averaged so that a mean ± Standard Error of the Mean (SEM) was calculated from three or more separate experiments. […] Drug combinations were designed based on the standard CalcuSyn approach in which a series of drug concentrations were combined in a fixed molar ratio, based on the IC50 of each drug. A variation of this approach was a sequential scheduling in which cells were exposed for 72 h to BLS, while in the combination PLX was added after 24 h and cells were exposed from 24 to 72 h. In the non-fixed ratio approach one drug was used at the IC25 (concentration that results in 25% growth inhibition) and the other drug was added in a concentration range.

Jeko-1 = assay: Cell growth inhibition (MTT) and median-drug effect analysis, Jeko-1; assay type: cell-based; settings: Homo sapiens, read-out: IC50 (50% growth inhibition); Jeko-1, 72 h exposure
Procedure: Cells were plated in 96-wells flat bottom plates, at 3,000 or 6,000 cells per well in culture medium (75 μL/well) or in 24-wells plates (60,000 cells/well) for the counting assays for which a Coulter Counter was used. Cells were treated immediately with a drug dilution series in cell culture medium (75 μL/well). […] After incubation for 3 h in the 5% CO2 incubator with 100% humidity at 37°C, 150 μL acidified 2-propanol was added to the plates to dissolve the formazan crystals. The yellow-colored MTT stock solution is taken up and reduced to a purple formazan in living cells, which directly correlates to the amount of viable cells. As final step, the plates were measured at 540 (or 492) nm by the SPECTRAfluor spectrophotometer. […] Drug interaction in combination experiments was evaluated using the median-drug effect analysis using CalcuSyn software ([Bijnsdorp et al., 2011]). […] The means of the separate experiments were subsequently averaged so that a mean ± Standard Error of the Mean (SEM) was calculated from three or more separate experiments. […] Drug combinations were designed based on the standard CalcuSyn approach in which a series of drug concentrations were combined in a fixed molar ratio, based on the IC50 of each drug. […]

Karpas-299 = assay: Cell growth inhibition (MTT) and median-drug effect analysis, Karpas-299; assay type: cell-based; settings: Homo sapiens, read-out: IC50 (50% growth inhibition); Karpas-299, 72 h exposure
Procedure: as §1
(§2) Drug interaction in combination experiments was evaluated using the median-drug effect analysis using CalcuSyn software ([Bijnsdorp et al., 2011]). In order to evaluate combination indexes [CI] from different experiments, the CI values at Fraction Affected (FA) values >0.5 (preferably around 0.5, 0.75, and 0.9) were averaged for each specific experiment. The means of the separate experiments were subsequently averaged so that a mean ± Standard Error of the Mean (SEM) was calculated from three or more separate experiments. […]

Hut-29 = assay: Cell growth inhibition (MTT) and median-drug effect analysis, Hut-29; assay type: cell-based; settings: read-out: IC50 (50% growth inhibition); Hut-29, 72 h exposure
Procedure: as §1, §2

lymphoma cell lines = assay: Cell growth inhibition and median-drug effect analysis, panel of lymphoma cell lines; assay type: cell-based
Procedure: Cells were plated in 96-wells flat bottom plates, at 3,000 or 6,000 cells per well in culture medium (75 μL/well) or in 24-wells plates (60,000 cells/well) for the counting assays for which a Coulter Counter was used. Cells were treated immediately with a drug dilution series in cell culture medium (75 μL/well). […] After incubation for 3 h in the 5% CO2 incubator with 100% humidity at 37°C, 150 μL acidified 2-propanol was added to the plates to dissolve the formazan crystals. The yellow-colored MTT stock solution is taken up and reduced to a purple formazan in living cells, which directly correlates to the amount of viable cells. As final step, the plates were measured at 540 (or 492) nm by the SPECTRAfluor spectrophotometer. […] Drug interaction in combination experiments was evaluated using the median-drug effect analysis using CalcuSyn software ([Bijnsdorp et al., 2011]). […] The means of the separate experiments were subsequently averaged so that a mean ± Standard Error of the Mean (SEM) was calculated from three or more separate experiments. […] Drug combinations were designed based on the standard CalcuSyn approach in which a series of drug concentrations were combined in a fixed molar ratio, based on the IC50 of each drug. A variation of this approach was a sequential scheduling in which cells were exposed for 72 h to BLS, while in the combination PLX was added after 24 h and cells were exposed from 24 to 72 h.

HT cells [3] = assay: FACS propidium iodide staining: cell cycle distribution and cell death, HT; assay type: cell-based
Procedure: (§3) Propidium iodide staining (DNA staining) was used to determine cell cycle distribution and the extent of cell death. Cells (120,000 per well in a 24-wells plate) were exposed to PLX or BLS or the combination for 24, 48, or 72 h. Cells were harvested, suspended in 1.0 ml phosphate buffered saline/1% Bovine serum albumin and fixed with 70% ethanol. After centrifugation the pellet was resuspended in hypotonic propidium iodide (0.1 mg/ml), Triton-X-100 (0.1%), sodium citrate (1 mg/ml) and RNAse A (0.5 mg/ml) (final concentrations in saline) and stored in dark on ice for 30 min ([De Wilt et al., 2012]). DNA content of the cells to determine cell cycle effects and cell kill was analyzed by a FACScalibur (Becton Dickinson Immunocytometry Systems, San Jose, CA, United States) with an acquisition of 10,000 events as described previously ([De Wilt et al., 2012]).

SUDHL-4 cells [4] = assay: FACS propidium iodide staining: cell death, SUDHL-4; assay type: cell-based; settings: drugs at their IC50, untreated 5.0%
Procedure: as §3

FRα = target: T1, FRα (Homo sapiens, UniProt P15328); assay: Intact cell binding assay, displacement of radio-active folic acid from KB cells; settings: inverse ratio of compound to displace 50% of radio-active folic acid, folic acid set at 1
T1 construct: endogenous in cells; host or cells: KB cells
T1 sequence (P15328 25-257): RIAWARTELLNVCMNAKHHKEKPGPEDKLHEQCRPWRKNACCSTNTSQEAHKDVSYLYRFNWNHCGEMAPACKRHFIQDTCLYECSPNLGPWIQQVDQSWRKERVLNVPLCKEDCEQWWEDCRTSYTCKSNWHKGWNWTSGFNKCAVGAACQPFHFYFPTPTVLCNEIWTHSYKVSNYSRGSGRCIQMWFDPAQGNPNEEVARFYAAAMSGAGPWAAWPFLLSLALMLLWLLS
Procedure: (§4) In order to determine to which extent PLX was a substrate for either the folate receptors, RFC or PCFT we used competition experiments in cell lines overexpressing either transporter ([Westerhof et al., 1995a], [b]; [Jansen et al., 1997]; [Ifergan et al., 2008]; [Lasry et al., 2008]; [van der Heijden et al., 2009]). For FRα and FRβ, we used an intact cell binding assay for competitive binding with KB cells and CHO-FRβ cells, respectively. […] For RFC we used a competition assay with 5 μM [^3H]-l-LV in CCRF-CEM/7A cells (RFC+++) for 2 min at 37°C. CEM-7A cells overexpress the RFC 30-fold over wild-type CCRF-CEM cells ([Jansen et al., 1990], [1997]).

FRβ = target: T2, FRβ (Homo sapiens, UniProt P14207); assay: Intact cell binding assay, displacement of radio-active folic acid from CHO-FRβ cells; settings: folic acid set at 1
T2 construct: expressed in transfected cells; host or cells: CHO-FRβ cells
T2 sequence (P14207 17-255, species assumed): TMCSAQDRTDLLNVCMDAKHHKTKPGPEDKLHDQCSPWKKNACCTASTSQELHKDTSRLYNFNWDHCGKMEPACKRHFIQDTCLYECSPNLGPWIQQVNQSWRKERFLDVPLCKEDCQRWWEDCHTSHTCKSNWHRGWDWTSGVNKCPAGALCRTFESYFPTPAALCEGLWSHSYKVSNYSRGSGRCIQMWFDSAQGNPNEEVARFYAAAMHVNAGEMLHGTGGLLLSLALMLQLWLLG
Procedure: as §4

Row | IC50 (CCRF-CEM) [nM] | IC50 (SUDHL-4 cells [2]) [nM] | IC50 (SUDHL-5 cells) [nM] | IC50 (Karpas-299) [nM] | IC50 (lymphoma cell lines; 72 hr exposure, panel of cell lines, read-out: IC50, range over the cell lines) [nM] | FR-α relative affinity (FRα) | FRβ relative affinity (FRβ) | Structure (SMILES) | IC25 (concentration that results in 25% growth inhibition) (HT cells [1]; HT cells, 72 h) [nM] | IC50 (HT cells [1]; Homo sapiens, 72 h, read-out: IC50 (50% growth inhibition), HT, 72 h exposure) [nM] | IC50 (HT cells [1]; read-out: IC50 (50% growth inhibition), 72 h exposure) [nM] | IC50 (Jeko-1) [nM] | IC50 (Hut-29) [nM] | effect of l-LV on sensitivity to BLS (lymphoma cell lines; data not shown) | accumulation of cells in the S-phase (HT cells [3]; 72 h exposure at IC50) | accumulation of cells in the sub-G1 phase (cell death) (HT cells [3]; drugs at their IC50, untreated 3.5%) [%] | accumulation of cells in the sub-G1 phase (cell death) (SUDHL-4 cells [4]) [%]
1 | 95.8 ± 16.1 | 72.3 ± 5 | 112 ± 15 | 203 ± 21 | 72 to 233 |  |  | O=C(/C=C/c1cccc(S(=O)(=O)Nc2ccccc2)c1)NO [BLS, Belinostat] | ~100 | ~220 | 223 ± 23 | 103 ± 11 | 97 ± 12 | did not affect sensitivity | more pronounced | 21 | 15.5
2 |  |  |  |  |  | 1 | 1 | Nc1nc(=O)c2nc(CNc3ccc(C(=O)N[C@@H](CCC(=O)O)C(=O)O)cc3)cnc2[nH]1 [FA, Folic acid] |  |  |  |  |  |  |  |  | 
